{"source": "patent US4345938A", "about": "“Herbicidal 2-haloacetanilides” (Monsanto Company, priority 1980, dated 1982)", "format_in_all_cases": "in vivo", "key": {"Cyperus serotinus [1]": {"test_system": "Cyperus serotinus", "experiment": "Field transplant rice test, applied 0 DAT, CS", "details": "0 h, read-out: Percent Inhibition, CS; for inhibition at 375 g/ha: 0.375 Kg/Ha; for inhibition at 750 g/ha: 0.75 Kg/Ha; for inhibition at 1500 g/ha: 1.5 Kg/Ha; for inhibition at 3000 g/ha: 3.0 Kg/Ha", "how_it_was_run": "(§1)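 Field test in transplanted rice, herbicide applied as granules (2.5% or 5.0% w/w active) at transplanting (0 DAT). Rates from 3.0 kg/ha down to 0.375 kg/ha. Weed control observed weekly from 2 to 6 weeks after transplant, reported at 2, 4 and 6 WAT.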"}, "Echinochloa crus-galli [2]": {"test_system": "Echinochloa crus-galli", "experiment": "Greenhouse transplant rice test, EC", "details": "about 3 WAT, read-out: Percent Inhibition, EC", "source_text": "(§2) The test procedure used in this greenhouse test is as follows: Ray silt loam top soil containing about 0.05% by weight of krillium and sifted through a […] screen is fumigated about 5-10 days prior to use. Pots are then filled with said Ray silt loam soil to a level to allow for a 1 in. (2.54 cm) flooding depth. Rice plants (Bluebelle) of 2 to 3 weeks age are transplanted to the pots and bulbs or seeds of the test weeds also planted in the pots. The pots are then flooded and the test chemical applied to the surface of the flood water. The flood water is reduced to allow for germination of the Echinochloa crus-galli (barnyardgrass) seed and subsequently reflooded and maintained in that condition. Observations of percent inhibition using a scale of 0-100% are made about 3 weeks after transplant (WAT).\n(§3) The test data in Table III for all compounds was obtained under identical test conditions. The weeds used in the tests herein have the following abbreviations in the tables: Echinochloa crus-galli (EC), Monochloria vaginalis (MV), Cyperus Serotinus (CS), Eleocharis Kuroguwai (EK) and Sagittaria trifolia (ST)."}, "Rice": {"test_system": "Rice", "experiment": "Field transplant rice test, applied 0 DAT, rice injury", "details": "for inhibition at 375 g/ha / inhibition at 750 g/ha / inhibition at 1500 g/ha / inhibition at 3000 g/ha: Oryza sativa, 0 h, read-out: Percent Inhibition, Rice; for inhibition at 375 g/ha: 0.375 Kg/Ha; for inhibition at 750 g/ha: 0.75 Kg/Ha; for inhibition at 1500 g/ha: 1.5 Kg/Ha; for inhibition at 3000 g/ha: 3.0 Kg/Ha", "how_it_was_run": "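Field test in transplant rice with herbicide applied as granules at transplanting (0 DAT), at rates from 3.0 kg/ha down to 0.375 kg/ha. Injury was rated weekly from 2 to 6 weeks after transplant. Granules held 2.5% or 5.0% herbicide by weight, depending on compound.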"}, "Eleocharis kuroguwai": {"test_system": "Eleocharis kuroguwai", "experiment": "Field transplant rice test, applied 9 DAT, EK", "details": "for inhibition at 375 g/ha / inhibition at 750 g/ha / inhibition at 1500 g/ha / inhibition at 3000 g/ha: Eleocharis kuroguwai, 216 h, read-out: Percent Inhibition, EK; for inhibition at 375 g/ha: 0.375 Kg/Ha; for inhibition at 750 g/ha: 0.75 Kg/Ha; for inhibition at 1500 g/ha: 1.5 Kg/Ha; for inhibition at 3000 g/ha: 3.0 Kg/Ha", "how_it_was_run": "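Field test in transplanted rice, herbicides applied as granules (2.5% or 5.0% w/w active) 9 days after transplant at 3.0 down to 0.375 kg/ha. Weed control observed weekly from 3 to 7 weeks after transplant.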"}, "Cyperus serotinus [3]": {"test_system": "Cyperus serotinus", "experiment": "Greenhouse transplant rice test, CS", "details": "about 3 WAT, read-out: Percent Inhibition, CS", "source_text": "as §2, §3"}, "Sagittaria trifolia": {"test_system": "Sagittaria trifolia", "experiment": "Field transplant rice test, applied 0 DAT, ST", "details": "0 h, read-out: Percent Inhibition, ST; for inhibition at 375 g/ha: 0.375 Kg/Ha; for inhibition at 750 g/ha: 0.75 Kg/Ha; for inhibition at 1500 g/ha: 1.5 Kg/Ha; for inhibition at 3000 g/ha: 3.0 Kg/Ha", "how_it_was_run": "as §1"}, "Echinochloa crus-galli [4]": {"test_system": "Echinochloa crus-galli", "experiment": "Field transplant rice test, applied 0 DAT, EC", "details": "0 h, read-out: Percent Inhibition, EC; for inhibition at 375 g/ha: 0.375 Kg/Ha; for inhibition at 750 g/ha: 0.75 Kg/Ha; for inhibition at 1500 g/ha: 1.5 Kg/Ha; for inhibition at 3000 g/ha: 3.0 Kg/Ha", "how_it_was_run": "as §1"}}, "note": "Read-outs that look alike come from different tables or passages of the source.", "data": [{"smiles": "CCCCOc1cccc(CC)c1N(C)C(=O)CCl", "note": "[Example 1, N-methyl-2'-n-butoxy-6'-ethyl-2-chloroacetanilide]", "values": [{"measurement": "inhibition at 375 g/ha", "setting": "Cyperus serotinus [1]; 2 WAT", "result": 77, "unit": "%"}, {"measurement": "inhibition at 375 g/ha", "setting": "Cyperus serotinus [1]; 4 WAT", "result": 73, "unit": "%"}, {"measurement": "inhibition at 375 g/ha", "setting": "Cyperus serotinus [1]; 6 WAT", "result": 50, "unit": "%"}, {"measurement": "inhibition at 750 g/ha", "setting": "Cyperus serotinus [1]; 2 WAT", "result": 62, "unit": "%"}, {"measurement": "inhibition at 750 g/ha", "setting": "Cyperus serotinus [1]; 4 WAT", "result": 53, "unit": "%"}, {"measurement": "inhibition at 750 g/ha", "setting": "Cyperus serotinus [1]; 6 WAT", "result": 25, "unit": "%"}, {"measurement": "inhibition at 1500 g/ha", "setting": "Cyperus serotinus [1]; 2 WAT", "result": 92, "unit": "%"}, {"measurement": "inhibition at 1500 g/ha", "setting": "Cyperus serotinus [1]; 4 WAT", "result": 83, "unit": "%"}, {"measurement": "inhibition at 1500 g/ha", "setting": "Cyperus serotinus [1]; 6 WAT", "result": 73, "unit": "%"}, {"measurement": "inhibition at 3000 g/ha", "setting": "Cyperus serotinus [1]; 2 WAT", "result": 95, "unit": "%"}, {"measurement": "inhibition at 3000 g/ha", "setting": "Cyperus serotinus [1]; 4 WAT", "result": 99, "unit": "%"}, {"measurement": "inhibition at 3000 g/ha", "setting": "Cyperus serotinus [1]; 6 WAT", "result": 100, "unit": "%"}, {"measurement": "inhibition at 280 g/ha", "setting": "Echinochloa crus-galli [2]; 0.28 Kg/Ha", "result": 100, "unit": "%"}, {"measurement": "inhibition at 560 g/ha", "setting": "Echinochloa crus-galli [2]; 0.56 Kg/Ha", "result": 100, "unit": "%"}, {"measurement": "inhibition at 1120 g/ha", "setting": "Echinochloa crus-galli [2]; 1.12 Kg/Ha", "result": 100, "unit": "%"}, {"measurement": "inhibition at 2240 g/ha", "setting": "Echinochloa crus-galli [2]; 2.24 Kg/Ha", "result": 100, "unit": "%"}, {"measurement": "safety in rice", "setting": "Rice", "result": "safe in rice at rates above 1.5 kg/ha and slightly less than 3.0 kg/ha"}, {"measurement": "inhibition at 375 g/ha", "setting": "Rice; 2 WAT", "result": 10, "unit": "%"}, {"measurement": "inhibition at 375 g/ha", "setting": "Rice; 4 WAT", "result": 7, "unit": "%"}, {"measurement": "inhibition at 375 g/ha", "setting": "Rice; 6 WAT", "result": 5, "unit": "%"}, {"measurement": "inhibition at 750 g/ha", "setting": "Rice; 2 WAT", "result": 3, "unit": "%"}, {"measurement": "inhibition at 750 g/ha", "setting": "Rice; 4 WAT", "result": 0, "unit": "%"}, {"measurement": "inhibition at 750 g/ha", "setting": "Rice; 6 WAT", "result": 2, "unit": "%"}, {"measurement": "inhibition at 1500 g/ha", "setting": "Rice; 2 WAT", "result": 5, "unit": "%"}, {"measurement": "inhibition at 1500 g/ha", "setting": "Rice; 4 WAT", "result": 0, "unit": "%"}, {"measurement": "inhibition at 1500 g/ha", "setting": "Rice; 6 WAT", "result": 2, "unit": "%"}, {"measurement": "inhibition at 3000 g/ha", "setting": "Rice; 2 WAT", "result": 25, "unit": "%"}, {"measurement": "inhibition at 3000 g/ha", "setting": "Rice; 4 WAT", "result": 22, "unit": "%"}, {"measurement": "inhibition at 3000 g/ha", "setting": "Rice; 6 WAT", "result": 23, "unit": "%"}, {"measurement": "inhibition at 375 g/ha", "setting": "Eleocharis kuroguwai; 3 WAT", "result": 80, "unit": "%"}, {"measurement": "inhibition at 375 g/ha", "setting": "Eleocharis kuroguwai; 5 WAT", "result": 52, "unit": "%"}, {"measurement": "inhibition at 375 g/ha", "setting": "Eleocharis kuroguwai; 7 WAT", "result": 15, "unit": "%"}, {"measurement": "inhibition at 750 g/ha", "setting": "Eleocharis kuroguwai; 3 WAT", "result": 83, "unit": "%"}, {"measurement": "inhibition at 750 g/ha", "setting": "Eleocharis kuroguwai; 5 WAT", "result": 68, "unit": "%"}, {"measurement": "inhibition at 750 g/ha", "setting": "Eleocharis kuroguwai; 7 WAT", "result": 13, "unit": "%"}, {"measurement": "inhibition at 1500 g/ha", "setting": "Eleocharis kuroguwai; 3 WAT", "result": 82, "unit": "%"}, {"measurement": "inhibition at 1500 g/ha", "setting": "Eleocharis kuroguwai; 5 WAT", "result": 65, "unit": "%"}, {"measurement": "inhibition at 1500 g/ha", "setting": "Eleocharis kuroguwai; 7 WAT", "result": 0, "unit": "%"}, {"measurement": "inhibition at 3000 g/ha", "setting": "Eleocharis kuroguwai; 3 WAT", "result": 93, "unit": "%"}, {"measurement": "inhibition at 3000 g/ha", "setting": "Eleocharis kuroguwai; 5 WAT", "result": 93, "unit": "%"}, {"measurement": "inhibition at 3000 g/ha", "setting": "Eleocharis kuroguwai; 7 WAT", "result": 67, "unit": "%"}, {"measurement": "selectivity factor (GR15/GR85), EK in transplant rice", "setting": "Eleocharis kuroguwai; up to 5 WAT", "result": "about 2"}, {"measurement": "inhibition at 280 g/ha", "setting": "Cyperus serotinus [3]; 0.28 Kg/Ha", "result": 85, "unit": "%"}, {"measurement": "inhibition at 560 g/ha", "setting": "Cyperus serotinus [3]; 0.56 Kg/Ha", "result": 100, "unit": "%"}, {"measurement": "inhibition at 1120 g/ha", "setting": "Cyperus serotinus [3]; 1.12 Kg/Ha", "result": 100, "unit": "%"}, {"measurement": "inhibition at 2240 g/ha", "setting": "Cyperus serotinus [3]; 2.24 Kg/Ha", "result": 100, "unit": "%"}, {"measurement": "inhibition at 375 g/ha", "setting": "Sagittaria trifolia; 2 WAT", "result": 42, "unit": "%"}, {"measurement": "inhibition at 375 g/ha", "setting": "Sagittaria trifolia; 4 WAT", "result": 8, "unit": "%"}, {"measurement": "inhibition at 375 g/ha", "setting": "Sagittaria trifolia; 6 WAT", "result": 5, "unit": "%"}, {"measurement": "inhibition at 750 g/ha", "setting": "Sagittaria trifolia; 2 WAT", "result": 43, "unit": "%"}, {"measurement": "inhibition at 750 g/ha", "setting": "Sagittaria trifolia; 4 WAT", "result": 12, "unit": "%"}, {"measurement": "inhibition at 750 g/ha", "setting": "Sagittaria trifolia; 6 WAT", "result": 8, "unit": "%"}, {"measurement": "inhibition at 1500 g/ha", "setting": "Sagittaria trifolia; 2 WAT", "result": 30, "unit": "%"}, {"measurement": "inhibition at 1500 g/ha", "setting": "Sagittaria trifolia; 4 WAT", "result": 8, "unit": "%"}, {"measurement": "inhibition at 1500 g/ha", "setting": "Sagittaria trifolia; 6 WAT", "result": 5, "unit": "%"}, {"measurement": "inhibition at 3000 g/ha", "setting": "Sagittaria trifolia; 2 WAT", "result": 47, "unit": "%"}, {"measurement": "inhibition at 3000 g/ha", "setting": "Sagittaria trifolia; 4 WAT", "result": 22, "unit": "%"}, {"measurement": "inhibition at 3000 g/ha", "setting": "Sagittaria trifolia; 6 WAT", "result": 18, "unit": "%"}, {"measurement": "inhibition at 375 g/ha", "setting": "Echinochloa crus-galli [4]; 2 WAT", "result": 97, "unit": "%"}, {"measurement": "inhibition at 375 g/ha", "setting": "Echinochloa crus-galli [4]; 4 WAT", "result": 100, "unit": "%"}, {"measurement": "inhibition at 375 g/ha", "setting": "Echinochloa crus-galli [4]; 6 WAT", "result": 100, "unit": "%"}, {"measurement": "inhibition at 750 g/ha", "setting": "Echinochloa crus-galli [4]; 2 WAT", "result": 98, "unit": "%"}, {"measurement": "inhibition at 750 g/ha", "setting": "Echinochloa crus-galli [4]; 4 WAT", "result": 100, "unit": "%"}, {"measurement": "inhibition at 750 g/ha", "setting": "Echinochloa crus-galli [4]; 6 WAT", "result": 98, "unit": "%"}, {"measurement": "inhibition at 1500 g/ha", "setting": "Echinochloa crus-galli [4]; 2 WAT", "result": 100, "unit": "%"}, {"measurement": "inhibition at 1500 g/ha", "setting": "Echinochloa crus-galli [4]; 4 WAT", "result": 100, "unit": "%"}, {"measurement": "inhibition at 1500 g/ha", "setting": "Echinochloa crus-galli [4]; 6 WAT", "result": 100, "unit": "%"}, {"measurement": "inhibition at 3000 g/ha", "setting": "Echinochloa crus-galli [4]; 2 WAT", "result": 98, "unit": "%"}, {"measurement": "inhibition at 3000 g/ha", "setting": "Echinochloa crus-galli [4]; 4 WAT", "result": 100, "unit": "%"}, {"measurement": "inhibition at 3000 g/ha", "setting": "Echinochloa crus-galli [4]; 6 WAT", "result": 100, "unit": "%"}]}]}
